This is an account of results in publication PMC6724193 (ACS infectious diseases, 2019).

For one test, the system named is M. tuberculosis H37Rv. Format: cell-based.
Test [1] deals with drug susceptible and drug-resistant M. tuberculosis strains. The format is cell-based.

`O=C(O)CCCCCC1NC(=O)CS1` (racemic) [(±)-acidomycin, 6-(4-Oxothiazolidin-2-yl)hexanoic acid]: in the test on M. tuberculosis H37Rv, the “agar MIC” value was 12 µM, the “fold increase of MIC of resistant mutant over WT H37Rv” value was “approximately 16 fold” and the “frequency of resistance (FOR)” value is “less than or equal to 1 × 10^−8”.
On to `O=C(O)CCCCCC1NC(=O)CS1` (stereo not drawn) [acidomycin], for which, in the test with M. tuberculosis H37Rv, the “fold increase in MIC” value is “two- to three-fold” and the “fold increase of MIC of resistant mutant over WT H37Rv” value was determined as 16 fold. Besides, the “MICs (range over strains)” value in test [1] lay within 0.096 to 6.2 µM.
